Source: PubChem BioAssay (NCI)
Where “and” joins values, the source holds several entries; their conditions need not be identical. Equal values may be shown once.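 48-hour exposure; five concentrations; linearly interpolated endpoints. At the GI50, growth is halved. TGI: concentration producing complete growth inhibition.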

How the values were obtained:
Experiment in all cases: DTP human tumour cell line panel, 48 h
[1] = test system: HS 578T breast
[2] = test system: DLD-1 colon
[3] = test system: KM20L2 colon
[4] = test system: LXFL 529 NSCLC
[5] = test system: MDA-N
[6] = test system: SNB-78 CNS
[7] = test system: XF 498 CNS
[8] = test system: RXF-631 renal
[9] = test system: DMS 114 small cell lung

Compound: CCN1C(=O)N(CC)C2C1NN=c1s/c(=C\c3ccc(Cl)cc3Cl)c(=O)n12 (centres undefined)
- GI50 [1]: 0.0379 µM
- TGI [1]: > 50.5 µM

Compound: COc1ccc(-c2noc(C(=O)O)c2-c2cc(OC)c(OC)c(OC)c2)cc1
- GI50 [1]: 3.38 µM
- TGI [1]: > 100 µM

Compound: Cc1ccc(S(=O)(=O)SC/C=C\CSS(=O)(=O)c2ccc(C)cc2)cc1
- TGI [2]: > 100 µM and 47.7 µM
- TGI [1]: > 100 µM
- TGI [3]: > 88.5 µM and 49.1 µM
- GI50 [4]: 8.61 µM and 17.5 µM
- TGI [4]: > 67.8 µM and 33.9 µM
- TGI [5]: > 31.6 µM
- TGI [6]: > 100 µM and 89.5 µM
- TGI [7]: > 100 µM and 43.9 µM

Compound: C/C(CC(O)(C(F)(F)F)C(F)(F)F)=N\NC(N)=O
- TGI [1]: > 10 µM
- TGI [5]: > 10 µM

Compound: COc1cc(/C=C/C(=O)/C=C/c2cc(OC)c3c(c2)OCO3)cc2c1OCO2
- GI50 [1]: 95.3 µM
- TGI [1]: > 100 µM

Compound: O=C(NCCCOC(=O)CCCCCCCCC(=O)OCCCNC(=O)NC(=O)c1c[nH]c(=O)[nH]c1=O)NC(=O)c1c[nH]c(=O)[nH]c1=O
- TGI [2]: > 100 µM
- TGI [3]: > 100 µM
- TGI [4]: > 100 µM
- TGI [8]: > 100 µM
- TGI [6]: > 100 µM
- TGI [7]: > 100 µM

Compound: O=S(=O)(Nc1ccc(Br)cc1)c1ccc(-c2cnc(C3CC3)o2)cc1
- GI50 [1]: 1.38 µM
- TGI [1]: 6.17 µM

Compound: O=C(COc1ccccc1Cl)N1N=C(c2ccc(Cl)cc2)CC1(O)c1ccccc1 (centres undefined)
- TGI [2]: > 100 µM
- TGI [3]: > 100 µM
- TGI [4]: > 100 µM
- TGI [8]: > 100 µM
- TGI [6]: > 100 µM
- TGI [7]: > 100 µM

Compound: C[N+](C)(C)CCC(=O)CC[N+](C)(C)C
- TGI [2]: 39.2 µM
- TGI [9]: 44.2 µM
- TGI [3]: 55.4 µM
- TGI [4]: 30.4 µM
- TGI [6]: 50.8 µM
- TGI [7]: 46.6 µM

Compound: COC(=O)C1=C(O)C(C(=O)OC)C2CC(=O)CC1C2(C)C (centres undefined)
- TGI [1]: > 100 µM
- TGI [5]: > 100 µM

Compound: C=C1CCC2C3(C)COC(C)(C)OC3CCC2(C)C1C/C=C1/C(=O)OCC1OC(C)=O (centres undefined)
- GI50 [1]: 2.75 µM
- TGI [1]: 9.59 µM

Compound: Cc1c2cnccc2c(C)c2c1c1cc(C#N)ccc1n2C
- GI50 [1]: 0.241 µM
- TGI [1]: 1.3 µM

Compound: C=C(c1ccccc1)C1(O)CCCCC1N (centres undefined)
- TGI [2]: > 100 µM
- TGI [9]: > 100 µM
- TGI [3]: > 100 µM
- TGI [4]: > 100 µM
- TGI [6]: > 100 µM
- TGI [7]: > 100 µM

Compound: CCSCCCSCCSCC
- TGI [5]: > 100 µM

Compound: COc1ccc2nccc(C3=CCC4CCN(C(=O)c5ccccc5)C3C4)c2c1 (centres undefined)
- TGI [2]: > 100 µM
- TGI [9]: > 100 µM
- TGI [4]: > 100 µM
- TGI [6]: > 100 µM
- TGI [7]: > 100 µM

Compound: CCCN1C(=O)NC(=O)C(CC)(N2C(=O)c3c(F)c(F)c(F)c(F)c3C2=O)C1=O (centres undefined)
- GI50 [1]: 2.3 µM
- TGI [1]: 6.94 µM

Compound: Cn1ccnc1CCc1c(Cl)cccc1Cl
- TGI [2]: > 100 µM
- TGI [9]: > 100 µM
- TGI [3]: > 100 µM
- TGI [4]: > 100 µM
- TGI [6]: > 100 µM

Compound: COc1cccc(-c2nc3cc(NC(=O)c4ccc(Cl)c(C#N)c4)ccc3o2)c1
- GI50 [1]: 8.89 µM
- TGI [1]: > 100 µM

Compound: c1ccc(NN(Cc2cnccn2)c2ccccc2)cc1
- TGI [1]: > 100 µM
- TGI [5]: > 100 µM

Compound: COc1cc(Cl)cc(=O)c(O)c1OC
- TGI [2]: > 100 µM
- TGI [9]: 67.6 µM
- TGI [3]: > 100 µM
- TGI [4]: > 100 µM
- TGI [6]: > 100 µM
- TGI [7]: > 100 µM

Compound: O=C(NCC1CC1)c1ccc(-c2cccc(C(=O)NC3CC3)c2)cc1
- GI50 [1]: > 25 µM
- TGI [1]: > 25 µM

Compound: O=[N+]([O-])c1ccccc1N=Nc1c(O)[nH]c2cccc(C(F)(F)F)c12
- TGI [1]: > 100 µM
- TGI [5]: 33.3 µM

Compound: CNC(=S)Nc1ccc(OC)c2ccccc12
- TGI [1]: > 10 µM
- TGI [5]: > 10 µM

Compound: Cc1cc2c(C)nn(Cc3ccccc3)c2c(C(=O)O)c1C
- TGI [3]: > 100 µM
- TGI [4]: > 100 µM
- TGI [8]: > 100 µM
- TGI [6]: > 100 µM
- TGI [7]: > 100 µM

Compound: CC1=C2C(=C[C@@](C)(CO)[C@@H]2OC(=O)N(C)CCN(C)C(=O)OC(C)(C)C)C(=O)[C@](C)(O)C12CC2
- GI50 [1]: 15.3 µM
- TGI [1]: > 50 µM

Compound: CC(=O)Nc1ccc(-c2cc(C(=O)O)c3cc4ccccc4cc3n2)cc1
- TGI [1]: > 100 µM
- TGI [5]: > 100 µM

Compound: Clc1ccc(-c2cn3ccnc3c(-c3ccc(Cl)cc3)n2)cc1
- GI50 [1]: 26.3 µM
- TGI [1]: 92.4 µM

Compound: CCC1(O)C(=O)OCc2c1cc1n(c2=O)Cc2cc3ccccc3nc2-1 (centres undefined)
- TGI [1]: > 100 µM

Compound: CCc1c2c(nc3ccc(OCc4ccc(B(O)O)cc4)cc13)-c1cc3c(c(=O)n1C2)COC(=O)[C@]3(O)CC
- GI50 [1]: 0.752 µM
- TGI [1]: > 100 µM

Compound: O=C1C=CC(=O)c2c1ccc1c3ccccc3n(Cc3ccc([N+](=O)[O-])cc3)c21
- TGI [5]: > 100 µM

Compound: CC(=O)c1c(O)c(C)c(O)c(Cc2c(O)c3c(c(C(=O)/C=C/c4ccccc4)c2O)OC(C)(C)C=C3)c1O
- TGI [1]: > 100 µM
- TGI [5]: > 100 µM
